Reference: PubChem BioAssay AID330 (DTP/NCI, 2004)
Several values for one entry are separate records, joined by “and”; a condition that tells them apart may be missing. Identical values can stand only once. Inconclusive results and toxic doses are left out. Rule for the calls: active = survival T/C of 150% or more; inactive = T/C below 125% in these data.

Tested on: P388 leukemia ip, CD2F1 mice, survival T/C
Assay: NCI In Vivo Anticancer Drug Screen. Data for tumor model P388 Leukemia (intraperitoneal) in CD2F1 (CDF1) mice
Conditions: endpoint: median survival time, higher = longer survival
How it was run: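 Mice carrying the transplanted tumor received test compound or vehicle. Survival was recorded in each group, and the value is the treated-group measurement divided by that of the vehicle-treated control group.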

[1] = dose: 50.0 mg/kg/injection, schedule: Q01DX005 (ip), vehicle: Klucel (hydroxypropylcellulose) (HPC)
[2] = dose: 100.0 mg/kg/injection, schedule: Q01DX005 (ip), vehicle: Klucel (hydroxypropylcellulose) (HPC)
[3] = dose: 200.0 mg/kg/injection, schedule: Q01DX005 (ip), vehicle: Klucel (hydroxypropylcellulose) (HPC)
[4] = dose: 50.0 mg/kg/injection, schedule: Q01DX005 (ip), vehicle: saline with Tween-80
[5] = dose: 50.0 mg/kg/injection, schedule: Q01DX009 (ip), vehicle: saline with Tween-80
[6] = dose: 100.0 mg/kg/injection, schedule: Q01DX009 (ip), vehicle: saline with Tween-80
[7] = dose: 200.0 mg/kg/injection, schedule: Q01DX009 (ip), vehicle: saline with Tween-80
[8] = dose: 12.5 mg/kg/injection, schedule: Q01DX005 (ip), vehicle: saline with Tween-80
[9] = dose: 25.0 mg/kg/injection, schedule: Q01DX005 (ip), vehicle: saline with Tween-80
[10] = dose: 60.0 mg/kg/injection, schedule: Q01DX005 (ip), vehicle: saline with Tween-80
[11] = dose: 120.0 mg/kg/injection, schedule: Q01DX005 (ip), vehicle: saline with Tween-80
[12] = dose: 240.0 mg/kg/injection, schedule: Q01DX005 (ip), vehicle: saline with Tween-80

Measured: T/C

COc1ccc2c(C)cc(N/N=C\c3cccc4ccccc34)nc2c1
inactive: [1] 98 % of control | [2] 93 % of control | [3] 106 % of control

O=C(CN(OC(=O)c1ccccc1)C(=O)c1ccccc1)OCc1ccccc1
inactive: dose: 12.5 mg/kg/injection, schedule: Q01DX009 (ip), vehicle: distilled water + Tween-80 92 % of control | dose: 25.0 mg/kg/injection, schedule: Q01DX009 (ip), vehicle: distilled water + Tween-80 99 % of control | dose: 50.0 mg/kg/injection, schedule: Q01DX009 (ip), vehicle: distilled water + Tween-80 99 % of control | dose: 100.0 mg/kg/injection, schedule: Q01DX009 (ip), vehicle: distilled water + Tween-80 100 % of control | dose: 200.0 mg/kg/injection, schedule: Q01DX009 (ip), vehicle: distilled water + Tween-80 101 % of control

C1=C(CC[Si]23OCCN(CCO2)CCO3)CCCC1
inactive: [1] 110 % of control | [2] 103 % of control | [3] 103 % of control

NC(=O)CNC(c1ccccc1)c1ccccc1
inactive: dose: 37.5 mg/kg/injection, schedule: Q01DX009 (ip), vehicle: saline with Tween-80 107 % of control | dose: 75.0 mg/kg/injection, schedule: Q01DX009 (ip), vehicle: saline with Tween-80 106 % of control | dose: 150.0 mg/kg/injection, schedule: Q01DX009 (ip), vehicle: saline with Tween-80 100 % of control

OCCN(CCO)C(Cc1ccccc1)c1ccccc1 (stereo unspecified)
inactive: [4] 110 % of control | dose: 100.0 mg/kg/injection, schedule: Q01DX005 (ip), vehicle: saline with Tween-80 105 % of control | dose: 200.0 mg/kg/injection, schedule: Q01DX005 (ip), vehicle: saline with Tween-80 110 % of control

O=C(c1ccc(Cl)cc1)c1nnc(Cl)s1
inactive: [5] 110 % of control | [6] 118 % of control | [7] 101 % of control

O=C1CSCC(=O)OCCOCCOCCO1
inactive: dose: 100.0 mg/kg/injection, schedule: Q04DX003 (ip), vehicle: suspension in saline 104 % of control | dose: 200.0 mg/kg/injection, schedule: Q04DX003 (ip), vehicle: suspension in saline 101 % of control | dose: 400.0 mg/kg/injection, schedule: Q04DX003 (ip), vehicle: suspension in saline 101 % of control

CC(O)CCOC(C[N+](=O)[O-])C(Cl)(Cl)Cl (stereo unspecified)
inactive: [5] 101 % of control and 104 % of control | [6] 117 % of control | [7] 102 % of control and 120 % of control

Cc1ccc(NC2=C([n+]3ccc(C)cc3)C(=O)c3ccccc3C2=O)cc1
inactive: [8] 100 % of control | [9] 109 % of control | [4] 124 % of control

CC(C)CCc1c(N)nc(N)[nH]c1=O
inactive: [8] 101 % of control | [9] 97 % of control | [4] 97 % of control

O=C(O)c1ccc(N=Cc2ccc3c(c2)OCO3)cc1
inactive: dose: 25.0 mg/kg/injection, schedule: Q04DX003 (ip), vehicle: saline 100 % of control | dose: 50.0 mg/kg/injection, schedule: Q04DX003 (ip), vehicle: saline 102 % of control | dose: 100.0 mg/kg/injection, schedule: Q04DX003 (ip), vehicle: saline 96 % of control | dose: 200.0 mg/kg/injection, schedule: Q04DX003 (ip), vehicle: saline 94 % of control

CN(C)c1ccc(N=Nc2ccc3c4c(cccc24)-c2ccccc2-3)cc1
inactive: [5] 104 % of control | [6] 96 % of control | [7] 115 % of control

O=C1C=C(Nc2ccccc2N=C2C(N3C4=CCc5ccccc5C4=Nc4ccccc43)=CC(=O)c3ccccc32)C(=O)c2ccccc21
inactive: dose: 50.0 mg/kg/injection, schedule: Q01DX009 (ip), vehicle: saline 89 % of control | dose: 100.0 mg/kg/injection, schedule: Q01DX009 (ip), vehicle: saline 91 % of control | dose: 200.0 mg/kg/injection, schedule: Q01DX009 (ip), vehicle: saline 100 % of control

Cc1nc2[nH]ncc2c(=O)n1-c1ccccc1
inactive: [1] 97 % of control | [2] 99 % of control | [3] 100 % of control

N#CC(OC(OC(C#N)c1ccccc1)c1ccccc1)c1ccccc1 (stereo unspecified)
inactive: [10] 98 % of control | [11] 94 % of control | [12] 89 % of control

O=C(O)C(=O)O.[Ti].[c-]1[c-][c-][cH-][c-]1.[c-]1[c-][c-][cH-][c-]1
inactive: dose: 3.75 mg/kg/injection, schedule: Q01DX005 (ip), vehicle: Klucel (hydroxypropylcellulose) (HPC) 94 % of control | dose: 7.5 mg/kg/injection, schedule: Q01DX005 (ip), vehicle: Klucel (hydroxypropylcellulose) (HPC) 99 % of control | dose: 15.0 mg/kg/injection, schedule: Q01DX005 (ip), vehicle: Klucel (hydroxypropylcellulose) (HPC) 99 % of control | dose: 30.0 mg/kg/injection, schedule: Q01DX005 (ip), vehicle: Klucel (hydroxypropylcellulose) (HPC) 100 % of control

O=C(/C(=C\c1ccccc1)c1ccccc1)c1ccccc1
inactive: [5] 92 % of control | [6] 88 % of control | [7] 93 % of control | dose: 400.0 mg/kg/injection, schedule: Q01DX009 (ip), vehicle: saline with Tween-80 95 % of control

Nc1ncnc2c1ncn2C1OCC(O)C1O (stereo unspecified)
inactive: dose: 50.0 mg/kg/injection, schedule: Q01DX009 (ip), vehicle: suspension in saline 119 % of control | dose: 100.0 mg/kg/injection, schedule: Q01DX009 (ip), vehicle: suspension in saline 112 % of control

CC(C)/[N+]([O-])=N\O
inactive: dose: 3.0 mg/kg/injection, schedule: Q01DX005 (ip), vehicle: Klucel (hydroxypropylcellulose) (HPC) 101 % of control | dose: 6.0 mg/kg/injection, schedule: Q01DX005 (ip), vehicle: Klucel (hydroxypropylcellulose) (HPC) 98 % of control | dose: 12.0 mg/kg/injection, schedule: Q01DX005 (ip), vehicle: Klucel (hydroxypropylcellulose) (HPC) 100 % of control | dose: 24.0 mg/kg/injection, schedule: Q01DX005 (ip), vehicle: Klucel (hydroxypropylcellulose) (HPC) 98 % of control

O=C1C=C2CCCCCCCCC(C1)C2 (stereo unspecified)
inactive: [1] 99 % of control | [2] 96 % of control | [3] 89 % of control

O=C1Nc2c(Cl)cc(Cl)cc2/C1=N/N=C/c1ccccc1O
inactive: [4] 91 % of control

Clc1ccc(N=C2N=C(Nc3ccc(Cl)cn3)c3ccccc32)nc1
inactive: dose: 12.5 mg/kg/injection, schedule: Q01DX009 (ip), vehicle: saline with Tween-80 86 % of control | dose: 25.0 mg/kg/injection, schedule: Q01DX009 (ip), vehicle: saline with Tween-80 89 % of control | [5] 87 % of control and 95 % of control

Oc1cc2c(cc1C(c1ccc3c(c1)OCO3)N1CCOCC1)OCO2 (stereo unspecified)
inactive: [10] 118 % of control | [11] 106 % of control | [12] 111 % of control

CC(C)C(=O)CC1(O)C(=O)Nc2ccc([N+](=O)[O-])cc21 (stereo unspecified)
inactive: [10] 101 % of control | [11] 93 % of control | [12] 91 % of control

CC1=NNC(=O)C1(Br)Br
inactive: dose: 3.13 mg/kg/injection, schedule: Q01DX009 (ip), vehicle: Klucel (hydroxypropylcellulose) (HPC) 90 % of control | dose: 6.25 mg/kg/injection, schedule: Q01DX009 (ip), vehicle: Klucel (hydroxypropylcellulose) (HPC) 100 % of control | dose: 12.5 mg/kg/injection, schedule: Q01DX009 (ip), vehicle: Klucel (hydroxypropylcellulose) (HPC) 100 % of control

COc1cc2c(cc1C(CC(C)O)c1cc(OC)c(OC)c(OC)c1)OCO2 (stereo unspecified)
inactive: [10] 100 % of control | [11] 90 % of control | [12] 98 % of control

CC(C)(C)OC(=O)C(N(Cc1ccccc1)Cc1ccccc1)N(Cc1ccccc1)Cc1ccccc1
inactive: [10] 88 % of control | [11] 88 % of control | [12] 86 % of control

Clc1ccc(CN2Cc3ccc4cccnc4c3OC2c2ccncc2)cc1Cl (stereo unspecified)
inactive: dose: 100.0 mg/kg/injection, schedule: Q04DX003 (ip), vehicle: Klucel (hydroxypropylcellulose) (HPC) 100 % of control | dose: 200.0 mg/kg/injection, schedule: Q04DX003 (ip), vehicle: Klucel (hydroxypropylcellulose) (HPC) 96 % of control | dose: 400.0 mg/kg/injection, schedule: Q04DX003 (ip), vehicle: Klucel (hydroxypropylcellulose) (HPC) 103 % of control

Cc1ccccc1/C=C1/C(=O)C(c2ccccc2)=C1c1ccccc1
inactive: dose: 100.0 mg/kg/injection, schedule: Q01DX001 (ip), vehicle: Klucel (hydroxypropylcellulose) (HPC) 105 % of control | dose: 200.0 mg/kg/injection, schedule: Q01DX001 (ip), vehicle: Klucel (hydroxypropylcellulose) (HPC) 106 % of control | dose: 400.0 mg/kg/injection, schedule: Q01DX001 (ip), vehicle: Klucel (hydroxypropylcellulose) (HPC) 100 % of control

CCc1c(OC)c(C#N)c2n(C)c3cc(C)c(C)cc3n2c1=O
inactive: [10] 87 % of control | [11] 90 % of control | [12] 93 % of control

CCC/C(C)=C(/C#N)CC
inactive: dose: 25.0 mg/kg/injection, schedule: Q01DX009 (ip), vehicle: Klucel (hydroxypropylcellulose) (HPC) 101 % of control | dose: 50.0 mg/kg/injection, schedule: Q01DX009 (ip), vehicle: Klucel (hydroxypropylcellulose) (HPC) 101 % of control | dose: 100.0 mg/kg/injection, schedule: Q01DX009 (ip), vehicle: Klucel (hydroxypropylcellulose) (HPC) 101 % of control
